Assay results reported in patent publication US7645882B2, “Inhibitor of protein modification products formation” (priority 2003, dated 2010).

How the values were obtained:
normal rat (WKY rat) = experiment: Vitamin B6 deficiency in normal rat; assay type: in vivo; conditions: 13 mg/kg/rat/once twice daily by sonde, 20 weeks
Procedure: TM-2002 was administered to normal rat (WKY rat: Japan SLC) to examine the presence of vitamin B6 deficiency. Aminoguanidine, which is known its vitamin B6 capturing effect was used as control. Each group involves 10 rats. 13 mg/kg/rat/once of TM-2002 or aminoguanidine suspended in carboxymethyl cellulose (0.5%) was respectively administered coercively using sonde twice a daily. Administration term was 20 weeks. The conventional diet (CRF1: Oriental yeast) was used.
After 20 weeks, the appearance of WKY rat was observed.

pentosidine = experiment: Pentosidine production inhibiting effect with BSA and arabinose; assay type: biochemical; conditions: BSA and arabinose instead of plasma
Procedure: Fresh heparinized plasma samples were obtained after informed consent from hemodialysis patients prior to the dialysis session, and filtrated and sterilized. To the plasma (450 μL), there was added the solution of TM-2002 in dimethylsurphoxide (50 μL) (final concentration: 0.8, 2.0, 5.0 mM) incubated at 37° C. for one week. Then, the amount of pentosidine was measured.
Measurement of the amount of pentosidine was made as follows: to each incubated sample (50 μL) was added an equal volume of 10% trichloroacetic acid, followed by centrifugation at 5000 g for 5 minutes; after removal of the supernatant, the pellet was washed by 5% trichloroacetic acid (300 μL); the pellet was dried under reduced pressure and then subjected to hydrolysis in 6N HCl solution (100 μL) at 110° C. under nitrogen atmosphere for 16 hours; to the hydrolysate, 5N NaOH (100 μL) and 0.5 M phosphate buffer (pH 7.4) (200 μL) were added, followed by filtration through a porefilter with a pore size of 0.5 μm and dilution with PBS. The concentration of free pentosidine was determined by reversed-phase HPLC using a fluorescence detector (Miyata, T. et al.: Proc. Natl. Acad. Sci. USA, Vol. 93, p. 2353-2358, 1996). The effluent was monitored at 335/385 nm of excitation/emission wavelength. Synthetic pentosidine was used as the standard. The detection limit of pentosidine was 0.1 pmol/mg protein.
The plasma from patients was substituted to BSA and arabinose, and the pentosidine production inhibiting effect of another compounds (I) or (II) was measured in the same manner as [Test Examination 1]. Therein, “-” means that the examination was not carried out.

[1] = Solubility and stability of TM-2002 injectable lyophilized formulation; assay type: physicochemical; conditions: room temperature, at 10 hours
Procedure: L-cystein hydrochloride (160 mg) was added to 80 ml of purified water, stirred and solved. The solution was adjust at pH 6.7 with 1N NaOH aqueous solution. Then 1 g of TM-2002 hydrochloride was added, stirred and solved, and the solution diluted with purified water to 100 ml with measuring flask. Such solution was divided into vial container of 50 ml by 6.3 ml each, frozen immediately with dry ice, and then stored at −80° C. to freeze completely. This was subjected to lyophilized for 3 days using lyophilizer. After lyophilizing, covered by rubber cap and sealed by aluminum cap using fastener, TM-2002 injectable lyophilized formulation was prepared.
To TM-2002 injectable lyophilized formulation prepared above, there was added 20 ml of purified water per 1 vial. […] TLC (Kiezel gel 60F254/developing solvent: CHCl3:MeOH=9:1/detection:UV=254 nm) was carried out to examine the change of ingredient. […] The result of TLC is represented in FIG. 16. When the solution was further diluted with saline, the stability was as same. […] The formulation is suitable for injectable lyophilized formulation which is prepared before use, and stable and usable.

[2] = Examination of stabilizing agent in TM-2002 hydrochloride solution; assay type: physicochemical
Excerpt: Several kind of stabilizing agent was usually used to stabilize the medicament and the effective manner is addition of antioxidant. Particularly, the material having lower oxidation-reduction potential is effective to stabilize highly oxidized compound. Accordingly, for sodium acid sulfite (NaHSO3) and L-cystein ([…]), which are usually used in injection, the stability was examined by adding such materials to TM-2002 hydrochloride aqueous solution.
The solving state of TM-2002 hydrochloride solution added sodium acid sulfite was examined in following manner; 1 ml of purified water, sodium acid sulfite (0.5 mg) and sodium acid sulfite (1 mg) solution was prepared respectively; to these solutions, there was added 63 mg of TM-2002 hydrochloride, stirred and solved; the solutions allowed to warm to room temperature to observe the solving state. […] Accordingly, the stability of TM-2002 itself will increase by using hydrochloride.
The solving state of TM-2002 hydrochloride solution added L-cystein hydrochloride was examined in following manner; 1 mg and 2 mg of L-cystein hydrochloride were dissolved in 1 ml of purified water respectively; pH was adjusted to 6.5; to these solutions, there was added 63 mg of TM-2002 hydrochloride, stirred and solved; the solutions allowed to warm to room temperature to observe the solving state. […] In addition, the degradability was observed by thin layer chromatography (TLC/Silica-gel 60F254 (Merck Japan)/developing solvent: chloroform:methanol=9:1/detection:UV=254 nm). […] Accordingly, the present invention provides lyophilized formulation comprising L-cystein by treating TM-2002 hydrochloride solution at low temperature and lyophilizing.

GRP78 = experiment: ER stress inducing molecule expression in RIN-5F cells, western blot, GRP78; assay type: cell-based, rat; conditions: tunicamycin added, 8 hours
Procedure: (§1) Rat pancreatic β cell line (RIN-5F) was seeded in 6 well culture plate to 1.0×10^5 cells/well, and after 24 hours, TM-2002 in DMSO (200 mM, 50 mM) were added to be final concentration 200 μM, 50 μM. After another 1 hour, 0.2 μl of tunicamycin (Sigma) in methanol(1 mg/ml) was added. After culturing 8 hours, the cells were washed 2 ml of PBS(+) twice, and the cells were dissolved in 100 μl of lysate (50 mM Tris-HCl (pH 7.5), 150 mM NaCl, 100 mM NaF, 100 mM sodium phosphate (pH 7.4), 2 mM Na3VO4, 0.1% protease inhibitor cocktail (Sigma), 1% Triton X-100). To remove the insoluble fraction of this lysate, centrifuged at 12,000×g for 10 minutes and obtained the supernatant to give cell extract. The extract was quantified its protein concentration using DC protein assay kit (Bio Rad), and each samples (1 μg) was electrophoresed by SDS-PAGE and transferred to PVDF membrane. The membrane was blocked with 5% skimmed milk/0.1% Tween20-TBS for 1 hour at room temperature, and reacted with anti-ORP150 antibody in 5% skimmed milk/0.1% Tween20-TBS (2000 folds: specific antibody), anti-GRP78 antibody (Santa Cruz) in 5% skimmed milk/0.1% Tween20-TBS (100 folds) and anti-actin antibody (Sigma) in 5% skimmed milk/0.1% Tween20-TBS (200 folds) for 2 hours. […] The detected signal was analyzed by Lane analyzer (ATTO) and calculated the signal strength. […]

ORP150 = experiment: ER stress inducing molecule expression in RIN-5F cells, western blot, ORP150; assay type: cell-based, rat; conditions: tunicamycin added, 8 hours
Procedure: as §1

[3] = 63 mg in 1 ml purified water only, pH 2 to 2.5, after 24 hours

N=C(N)NN [aminoguanidine]
condition caused by vitamin B6 deficiency (appearance) (normal rat (WKY rat)): skin inflammation, epilepsy and convulsion caused by cerebral disorder were observed

Cc1ncc2c(c1O)C(c1c(C)nn(-c3ccccc3)c1O)OC2.Cl (centres unmarked) [compound 69, 1-(5-hydroxy-3-methyl-1-phenyl-1H-pyrazol-4-yl)-6-methyl-1,3-dihydro-furo[3,4-c]pyridin-7-ol (hydrochloric acid salt)]
Pentosidine production rate in 5 mM of medicament (%) (pentosidine): 2.94%
decomposition products (TLC) [1]: decomposition products were observed
TM-2002 degradation [2, 3]: significant suppress of TM-2002 degradation was observed
solving state [2, 3]: no change was observed in its solving state
solving state ([2]; 63 mg in 1 ml with 0.5 mg or 1 mg sodium acid sulfite, room temperature, after 24 hours): remarkable precipitates were observed
solving state ([2]; 63 mg in 1 ml with 1 mg or 2 mg L-cystein hydrochloride, after 24 hours): no change was observed in solving state
solving state ([2]; 63 mg in 1 ml with 1 mg or 2 mg L-cystein hydrochloride, pH adjusted to 6.5, room temperature): no precipitates and deposits was observed
stabilization (TLC) ([2]; by addition of L-cystein, room temperature): significantly stabilized
degradability (TLC) ([2]; left over 24 hours at room temperature): degraded very slowly
stability of the solution ([2]; solution with L-cystein hydrochloride, preservation at −20° C., one week): stable after one week
solving state ([2]; with sodium sulfite or sodium pyrosulfite instead of sodium acid sulfite): crystal precipitate was deposited

tunicamycin [reference compound]
GRP78 expression compared to control sample (GRP78): 1.46 fords
ORP150 expression compared to control sample (ORP150): 1.88 folds
